Results on 7 compounds are retold here after article PMC9855884, “Glycosylated Lipopeptides—Synthesis and Evaluation of Antimicrobial Activity and Cytotoxicity” (Biomolecules, 2023).

≈ marks a conversion by molar mass, not a printed value. Where a SMILES comes first, the peptide text is derived from it. The star is where a group is joined. Stearoyl = CCCCCCCCCCCCCCCCCC(=O)*; Palmitoyl = CCCCCCCCCCCCCCCC(=O)*; Myristoyl = CCCCCCCCCCCCCC(=O)*

A short description of data set [1]: Determination of peptide hydrophobicity with RP-HPLC (adjusted retention time). The conditions noted are these: RP-HPLC as measure of hydrophobicity; Waters X-Bridge Shield RP-18 3.0 × 100 mm, 3.5 μm; linear 20–80% acetonitrile in water over 30 min, 0.1% TFA; 0.5 mL/min; 25.0 °C; peptide 1 g/L in water (0.1% TFA); UV 214 nm; triplicate. The class given is physicochemical. As to the method: To determine peptide hydrophobicity, a Waters Alliance e2695 system with a Waters 2998 PDA Detector was used. All analyses were carried out on a Waters X-Bridge Shield RP-18 column (3.0 × 100 mm, 3.5 μm particle size, 130 Å pore size). The peptides were dissolved in water (0.1% TFA, v/v) up to a concentration of 1 g/L. UV detection at 214 nm was used, and samples (10 μL) were eluted with a linear 20–80% acetonitrile gradient in deionized water over 30 min at 25.0 ± 0.1 °C. The mobile phase flow rate was 0.5 mL/min. Both eluents contained 0.1% (v/v) of TFA. Each peptide sample was analyzed in triplicate. Maximum standard deviation and coefficient of variation were 0.046 and 0.23%, respectively.
After synthesis and purification, all the products were analyzed with MS and HPLC to confirm purity and identity of the compounds. […] The chromatographic analyses were performed with RP-HPLC; retention time refers to hydrophobicity of the lipopeptide.

For a further data set, the system named is C. glabrata ATCC 15126. In kind it is cell-based, Candida glabrata. The conditions noted are these: ATCC 15126, 24 h. The method, then:
(§1) The Acinetobacter baumannii ATCC BAA-1605, Enterococcus faecium ATCC 700221, Klebsiella aerogenes ATCC 13048, Klebsiella pneumoniae ATCC 700603, Pseudomonas aeruginosa ATCC 9027, Staphylococcus aureus ATCC 33591, Candida glabrata ATCC 15126, strains were acquired from the American Type Culture Collection (ATCC). All the strains were stored at −80 °C in Roti-Store cryo vials and were transferred into fresh Mueller–Hinton broth (MHB, Becton Dickinson, Warsaw, Poland) for bacteria or RPMI-1640 (Sigma-Aldrich, Steinheim, Germany) for fungi before the tests and incubated for 24 h at 37 °C. Then, the cultures were seeded on the Mueller–Hinton agar (BioMaxima, Lublin, Poland) or Sabouraud dextrose agar (SDA, BioMaxima, Lublin, Poland) plates, respectively, and incubated as just mentioned. These agar cultures were used for further microbiological assays. Cell densities for all assays were adjusted spectrophotometrically (Multiskan GO Microplate Spectrophotometer, Thermo Fisher Scientific, Vantaa, Finland) at 600 and 530 nm for bacteria and fungi, respectively.
(§2) The MICs were determined using a broth microdilution method according to the Clinical and Laboratory Standard Institute guidelines. For this purpose, initial inoculums of bacteria (5 × 10^5 CFU/mL) in MHB and yeasts (2 × 10^3 CFU/mL) in RPMI-1640 with 2% D-glucose were exposed to the ranging concentration of lipopeptides (1–512 μg/mL) and incubated at 37 °C for 18 h and 24 h, respectively. The experiments were conducted on 96-well microtiter polystyrene plates (Kartell, Italy). The growth was assessed visually after incubation and the MIC was assumed as the lowest peptide concentration at which a noticeable growth of microorganisms was inhibited. All experiments were conducted in triplicate.

Another data set deals with P. aeruginosa ATCC 9027. The class given is cell-based, Pseudomonas aeruginosa. The conditions noted are these: ATCC 9027, 18 h. The method, then: as §1, §2
Data set [2] deals with human red blood cells (RBCs). The data set can be described thus: Hemolysis assay. In kind it is cell-based. The conditions noted are these: human RBCs 4% (v/v) in PBS, 60 min, 37 °C, absorbance 540 nm, 1–512 µg/mL; triplicate. The method, then: The hemolysis assay was conducted using a procedure described previously. For this purpose, fresh human red blood cells (RBCs) with EDTA anticoagulant were washed three times with phosphate-buffer saline (PBS) using centrifugation at 800× g for 10 min and resuspended in PBS. Then, the stock solution of RBCs was added to serial dilution of peptides on 96-well polystyrene plates to reach a final volume of 100 µL with 4% concentration of erythrocytes (v/v) over the concentration range of 1–512 µg/mL of the tested compounds. The control wells for the 0% and 100% hemolysis consisted of RBCs suspended in PBS and 1% of Triton X–100, respectively. Subsequently, the plates were incubated for 60 min at 37 °C and then centrifuged at 800× g for 10 min at 4 °C (Sorvall ST 16R Centrifuge, Thermo Scientific, Osterode am Harz, Germany). After centrifugation, the supernatant was carefully […] to new microtiter plates and the release of hemoglobin was monitored through absorbance measurements at 540 nm (Multiskan™ GO Microplate Spectrophotometer, Thermo Scientific). All experiments were conducted in triplicate.
The lipopeptides were tested against human erythrocytes in order to evaluate their hemolytic activity. Moreover, selectivity indexes (SI) were calculated by dividing the HC50 by MIC. […] In some cases, glycosylation led to suppressed toxicity, e.g., a comparison of C14 peptides analogs: 1–3 and 10–12. On the other hand, an increase in toxicity of C18 analogs (7–9 vs. 16–18) was found for glycosylated USCLs. For this reason, SI was calculated to provide a correlation between antimicrobial activity and toxicity. […] Among gUSCLs: 10 and 11 with C14 fatty acid and 16–18 should be highlighted owing to their high selectivity against E. fecium and C. glabrata.

The test system of data set [3] is A. baumannii ATCC BAA 1605. In kind it is cell-based, Acinetobacter baumannii. The conditions noted are these: ATCC BAA 1605, 18 h. The method, then:
as §1, §2

The next data set concerns E. faecium ATCC 700221. The class given is cell-based, Enterococcus faecium. The conditions noted are these: ATCC 700221, 18 h. The method, then: as §1, §2
The subject of a further data set is K. aerogenes ATCC 13048. In kind it is cell-based, Klebsiella aerogenes. The conditions noted are these: ATCC 13048, 18 h. As to the method: as §1, §2
In the next data set the test system is S. aureus ATCC 33591. In kind it is cell-based, Staphylococcus aureus. The conditions noted are these: ATCC 33591, 18 h. The method, then:
as §1, §2

Usually MIC stands for the lowest concentration that inhibits growth of the organism.

Consider `CCCCCCCCCCCCCC(=O)N[C@@H](CCCNC(=N)N)C(=O)N[C@@H](CO)C(=O)N[C@@H](CCCNC(=N)N)C(N)=O` [Peptide 2, C14-RSR-NH2] (Myristoyl-Arg-Ser-Arg-NH2), for which the “Adjusted Retention Time” value in data set [1] turned out to be 15.96 min. Moreover, the MIC turned out to be 32 µg/mL (≈ 51 µM) against C. glabrata ATCC 15126; 64 µg/mL (≈ 102 µM) against P. aeruginosa ATCC 9027; 64 µg/mL (≈ 102 µM) in data set [3]; 8 µg/mL (≈ 12.8 µM) against E. faecium ATCC 700221; 512 µg/mL (≈ 817 µM) against K. aerogenes ATCC 13048; 8 µg/mL (≈ 12.8 µM) against S. aureus ATCC 33591. Further, the “HC50 (hemolytic activity)” value in data set [2] is listed as 186.64 ± 2.14 µg/mL.
`CCCCCCCCCCCCCC(=O)N[C@@H](CCCNC(=N)N)C(=O)N[C@@H](CCCNC(=N)N)C(=O)N[C@@H](CO)C(N)=O` [Peptide 3, C14-RRS-NH2] (Myristoyl-Arg-Arg-Ser-NH2): the “Adjusted Retention Time” value in data set [1] was found to be 15.91 min. Besides, the minimal inhibitory concentration (MIC) with C. glabrata ATCC 15126 is 32 µg/mL (≈ 51 µM); in the data set on P. aeruginosa ATCC 9027 it was 64 µg/mL (≈ 102 µM); in data set [3], 64 µg/mL (≈ 102 µM); in the data set on E. faecium ATCC 700221 it was 8 µg/mL (≈ 12.8 µM); in the data set on K. aerogenes ATCC 13048 it was 512 µg/mL (≈ 817 µM); against S. aureus ATCC 33591, 16 µg/mL (≈ 25.5 µM). Also, the “HC50 (hemolytic activity)” value in data set [2] was found to be 227.01 ± 5.69 µg/mL.
In the case of `CCCCCCCCCCCCCCCC(=O)N[C@@H](CO)C(=O)N[C@@H](CCCNC(=N)N)C(=O)N[C@@H](CCCNC(=N)N)C(N)=O` [Peptide 4, C16-SRR-NH2] (Palmitoyl-Ser-Arg-Arg-NH2), in data set [1], the “Adjusted Retention Time” value is recorded as 20.55 min. The MIC came out at 4 µg/mL (≈ 6.11 µM) in the data set on C. glabrata ATCC 15126; 16 µg/mL (≈ 24.4 µM) with P. aeruginosa ATCC 9027; 32 µg/mL (≈ 48.9 µM) in data set [3]; 8 µg/mL (≈ 12.2 µM) in the data set on E. faecium ATCC 700221; 16 µg/mL (≈ 24.4 µM) against K. aerogenes ATCC 13048; 8 µg/mL (≈ 12.2 µM) with S. aureus ATCC 33591. In data set [2], the “HC50 (hemolytic activity)” value was determined as 75.46 ± 0.73 µg/mL.
Regarding `CCCCCCCCCCCCCCCC(=O)N[C@@H](CCCNC(=N)N)C(=O)N[C@@H](CO)C(=O)N[C@@H](CCCNC(=N)N)C(N)=O` [Peptide 5, C16-RSR-NH2] (Palmitoyl-Arg-Ser-Arg-NH2), the “Adjusted Retention Time” value in data set [1] was determined as 19.93 min. Besides, the MIC with C. glabrata ATCC 15126 was 8 µg/mL (≈ 12.2 µM); in the data set on P. aeruginosa ATCC 9027, 64 µg/mL (≈ 97.7 µM); in data set [3], 32 µg/mL (≈ 48.9 µM); against E. faecium ATCC 700221 it was 8 µg/mL (≈ 12.2 µM); against K. aerogenes ATCC 13048 it was 32 µg/mL (≈ 48.9 µM); against S. aureus ATCC 33591 it was 8 µg/mL (≈ 12.2 µM). For the same compound, in data set [2], the “HC50 (hemolytic activity)” value is reported as 82.21 ± 2.07 µg/mL.
As for `CCCCCCCCCCCCCCCC(=O)N[C@@H](CCCNC(=N)N)C(=O)N[C@@H](CCCNC(=N)N)C(=O)N[C@@H](CO)C(N)=O` [Peptide 6, C16-RRS-NH2] (Palmitoyl-Arg-Arg-Ser-NH2), the “Adjusted Retention Time” value in data set [1] turned out to be 19.89 min. For the same compound, the MIC against C. glabrata ATCC 15126 was 8 µg/mL (≈ 12.2 µM); against P. aeruginosa ATCC 9027, 16 µg/mL (≈ 24.4 µM); in data set [3], 32 µg/mL (≈ 48.9 µM); against E. faecium ATCC 700221, 8 µg/mL (≈ 12.2 µM); in the data set with K. aerogenes ATCC 13048, 64 µg/mL (≈ 97.7 µM); against S. aureus ATCC 33591, 8 µg/mL (≈ 12.2 µM). Besides, the “HC50 (hemolytic activity)” value in data set [2] came out at 75.95 ± 1.57 µg/mL.
For the compound `CCCCCCCCCCCCCCCCCC(=O)N[C@@H](CO)C(=O)N[C@@H](CCCNC(=N)N)C(=O)N[C@@H](CCCNC(=N)N)C(N)=O` [Peptide 7, C18-SRR-NH2] (Stearoyl-Ser-Arg-Arg-NH2), the “Adjusted Retention Time” value in data set [1] is reported as 24.78 min. Also, the MIC is recorded as 4 µg/mL (≈ 5.86 µM) with C. glabrata ATCC 15126; 64 µg/mL (≈ 93.7 µM) against P. aeruginosa ATCC 9027; 32 µg/mL (≈ 46.9 µM) in data set [3]; 8 µg/mL (≈ 11.7 µM) against E. faecium ATCC 700221; 16 µg/mL (≈ 23.4 µM) in the data set on K. aerogenes ATCC 13048; 16 µg/mL (≈ 23.4 µM) in the data set on S. aureus ATCC 33591. In data set [2], the “HC50 (hemolytic activity)” value is reported as 82.31 ± 1.36 µg/mL.
In the case of `CCCCCCCCCCCCCCCCCC(=O)N[C@@H](CCCNC(=N)N)C(=O)N[C@@H](CO)C(=O)N[C@@H](CCCNC(=N)N)C(N)=O` [Peptide 8, C18-RSR-NH2] (Stearoyl-Arg-Ser-Arg-NH2), the “Adjusted Retention Time” value in data set [1] is reported as 24.13 min. In addition, the MIC came to 4 µg/mL (≈ 5.86 µM) in the data set on C. glabrata ATCC 15126; 64 µg/mL (≈ 93.7 µM) in the data set on P. aeruginosa ATCC 9027; 64 µg/mL (≈ 93.7 µM) in data set [3]; 8 µg/mL (≈ 11.7 µM) in the data set with E. faecium ATCC 700221; 32 µg/mL (≈ 46.9 µM) against K. aerogenes ATCC 13048; 16 µg/mL (≈ 23.4 µM) against S. aureus ATCC 33591. For the same compound, the “HC50 (hemolytic activity)” value in data set [2] is recorded as 335.12 ± 73.39 µg/mL.
